In US12473263B2, “Bicyclic inhibitors of CBX chromodomains” (Icahn School of Medicine At Mount Sinai, priority 2019, dated 2025):
Each block holds one compound with its values, some of them ahead of it.

Assays:
PC3 cells = experiment: MTT assay for cell viability; type: cell-based; details: doses of 0, 1, 2.5, 3.75, 5.0, 8.0 micromolar
Procedure: The MTT assay is used to measure cellular metabolic activity as an indicator of cell viability, proliferation and cytotoxicity. This colorimetric assay is based on the reduction of a yellow tetrazolium salt (3-(4,5-dimethylthiazol-2-yl)-2,5-diphenyltetrazolium bromide or MTT) to purple formazan crystals by metabolically active cells. The viable cells contain NAD(P)H-dependent oxidoreductase enzymes which reduce the MTT to formazan. The insoluble formazan crystals are dissolved using 1-Propanol as a solubilization solution and the resulting purple colored solution is quantified by measuring absorbance at 570 nanometers (nm) using a multi-well spectrophotometer.
Protocol for MTT Assay: 100,000 PC3 cells were seeded per-well (CRL-1435, ATCC) for each dose of treatment 24 hours before treatment. Cells were quantitated with Countess II Cell Counter (AMQAX1000, Thermofisher Scientific). Cells were maintained at 37° C. with 5% CO2. SMAPs (dissolved in DMSO) were diluted to a stock concentration of 10 mM. Dilutions to the needed concentrations were made in DMEM (SH30022FS, Hyclone, GE Healthcare Life Sciences). Cells were treated with appropriate concentrations of compound. After 24 hours, MTT solution (M5655-1G, Sigma-Aldrich) was added to cells. Formazan crystals of metabolically active cells were dissolved with 1-Propanol (A414-500, ThermoFisher Scientific) and the solution was measured by absorbance at 570 nm (SpectraMax M5e, Molecular Devices).
Examples 1-3, 7-31, and 33-41 have also been studied in the above-described MTT assay for cell viability at four dose treatments (0, 2.5, 5.0, 10.0 micromolar).

[1] = molecular target: (Homo sapiens, UniProt O95931); experiment: Fluorescence anisotropy (FP) competition binding assay; details: 10 nM FAM-ANRIL as probe
Procedure: Fluorescence Anisotropy Binding Assay
Expression and purification of the first bromodomain (BrD1) of human BRD4 in poly-His tag form was performed using a procedure described in the literature [See Zeng et al. Structure 16, 643-652 (2008) and Zhang et al., J Biol Chem 287, 28840-28851 (2012).] The protein was purified by using affinity chromatography on a nickel-IDA column (Invitrogen), followed by the removal of poly-His tag by thrombin cleavage.
Measurements were obtained after 1 hour incubation of the fluorescent ligand and the protein at 25° C. with Safire 2 microplate reader (Tecan). In the assay, fluorescent ligand concentration was ≤2Kd, and protein concentration was set at which 50-80% of fluorescent ligand is bound. Dissociation constant of a competing ligand was calculated with the correction to Cheng-Prussoff equation introduced by Nicolovska-Coleska and colleagues [Nikolovska-Coleska, Z. et al., Anal Biochem 332, 261-273 (2004). Assuming one-site competitive binding model, the equation used to calculate K1's from IC50 values recovered from fitting data using Prism:
where [I50] is the concentration of free inhibitor at 50% inhibition, [L50], the concentration of free labeled ligand at 50% inhibition, and [P0], concentration of free protein at 0% inhibition. Note that Kd for each protein-probe pair is the limit of resolvable K1 in a competition assay.

CBX7ChD = CBX7ChD (Homo sapiens (Human), UniProt O95931); details: cited from earlier work
[2] = test system: p16INK4a in prostate cancer cells; details: cited from earlier work
[3] = Homo sapiens, PC-3, 24 hours treatment

Sequence of (Homo sapiens, UniProt O95931) (O95931 whole entry, looked up): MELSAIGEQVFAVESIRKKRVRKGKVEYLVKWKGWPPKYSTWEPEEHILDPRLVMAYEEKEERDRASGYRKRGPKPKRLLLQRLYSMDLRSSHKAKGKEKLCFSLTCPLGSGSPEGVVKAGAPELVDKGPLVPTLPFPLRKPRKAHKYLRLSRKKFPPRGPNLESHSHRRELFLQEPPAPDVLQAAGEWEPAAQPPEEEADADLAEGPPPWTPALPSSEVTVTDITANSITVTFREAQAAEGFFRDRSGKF
Sequence of CBX7ChD (O95931 11-69): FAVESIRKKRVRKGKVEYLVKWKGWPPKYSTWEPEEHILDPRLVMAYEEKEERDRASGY

- IC50 (PC3 cells; [3]): 1840 nM
Structure (SMILES): N=c1n(Cc2cn(Cc3ccccc3F)nn2)c2ccccc2n1CC(O)c1ccc(Cl)c(Cl)c1 (stereo not drawn) [Example 10, 1-(3,4-dichlorophenyl)-2-(3-((1-(2-fluorobenzyl)-1H-1,2,3-triazol-4-yl)methyl)-2-imino-2,3-dihydro-1H-benzo[d]imidazol-1-yl)ethan-1-ol]

- IC50 (PC3 cells; [3]): 884 nM
Structure (SMILES): Cc1ccccc1Cn1c(=N)n(CC(O)c2ccc(Cl)c(Cl)c2)c2ccc(F)cc21 (stereo not drawn) [Example 2, 1-(3,4-dichlorophenyl)-2-(5-fluoro-2-imino-3-(2-methylbenzyl)-2,3-dihydro-1H-benzo[d]imidazol-1-yl)ethan-1-ol]

- IC50 (PC3 cells; [3]): 1120 nM
Structure (SMILES): N=c1n(Cc2cn(-c3ccccc3)nn2)c2cc(Cl)ccc2n1CC(O)c1ccc(Cl)c(Cl)c1 (stereo not drawn) [Example 35, 2-(5-chloro-2-imino-3-((1-phenyl-1H-1,2,3-triazol-4-yl)methyl)-2,3-dihydro-1H-benzo[d]imidazol-1-yl)-1-(3,4-dichlorophenyl)ethanol]

- IC50 (PC3 cells; [3]): 776 nM
Structure (SMILES): Cc1ccccc1Cn1c(=N)n(CC(O)c2ccc(Cl)c(Cl)c2)c2ccc(Cl)cc21 (stereo not drawn) [Example 3, 2-(5-chloro-2-imino-3-(2-methylbenzyl)-2,3-dihydro-1H-benzo[d]imidazol-1-yl)-1-(3,4-dichlorophenyl)ethan-1-ol]

More lines, now with the values behind:

Structure (SMILES): C#CCn1c(=N)n(CC(O)c2ccc(Cl)c(Cl)c2)c2ccccc21 (stereo not drawn) [Example 6, 1-(3,4-dichlorophenyl)-2-(2-imino-3-(prop-2-yn-1-yl)-2,3-dihydro-1H-benzo[d]imidazol-1-yl)ethan-1-ol]
- Kd [1]: 1.53 µM

Structure (SMILES): Cc1ccccc1Cn1c(=N)n(CC(O)c2ccc(Cl)c(Cl)c2)c2ccccc21.Cl (stereo not drawn) [MS351]
- selectivity for CBX7ChD (over CBX2/4/6/8) (CBX7ChD): selective for CBX7ChD
- de-repression of p16INK4a [2]: de-repress

Structure (SMILES): Cc1ccc(Cn2cc(Cn3c(=N)n(CC(O)c4ccc(Cl)c(Cl)c4)c4ccccc43)nn2)cc1 (stereo not drawn) [Example 9, 1-(3,4-dichlorophenyl)-2-(2-imino-3-((1-(4-methylbenzyl)-1H-1,2,3-triazol-4-yl)methyl)-2,3-dihydro-1H-benzo[d]imidazol-1-yl)ethan-1-ol]
- IC50 (PC3 cells; 24 hours treatment): 900 nM
- Kd [1]: 0.108 µM
